Assay [1] concerns pAKT in Tet-on KRAS G12D HeLa cells. In words: Cell-based pAKT HTRF assay in Tet-on KRAS G12D HeLa cells. To be noted: Tet-on KRAS G12D HeLa cells; read-out: pAKT inhibition IC50 in Tet-on KRAS G12D HeLa cells. The procedure:
To determine the effectiveness of compounds in disrupting PIK3CA/KRAS signaling in cells, we implemented pAKT HTRF assay (Perkin-Elmer) in Tet-on KRAS G12D HeLa cells.
On Day 1, cells were seeded into 96-well plates at 2×10^4 cells/well in complete growth media (DMEM, 10% Tet-Screened FBS) supplemented with 200 ng/mL doxycycline.
On Day 2, cells were treated with compounds at 0.25% DMSO. The source plate was created with compounds diluted in media at 5-fold the final assay concentration. The compounds are run in a 9-point concentration curve starting at 75 μM, with a 3-fold dilution between concentrations. […] 20 μL was transferred onto the cell plates (final volume in wells was 100 μL). Plates were harvested after 30 min and 4 hr incubation by aspirating media and adding kit-supplied 1× supplemented lysis buffer to all wells (50 μL per well). This then changed to 4 hr only when compounds became covalent. Plates were then placed on a plate shaker and incubated at 850 rpm for an additional 30 min. The antibody mixture solution was prepared by diluting aliquoted d2 and Eu Cryptate antibodies 1:20 in kit supplied detection buffer, then mixed the diluted antibodies solutions (1:1 v:v). 4 μL of this solution was then added to a 384-well detection plate (Perkin Elmer; 6008230). Samples were homogenized by pipetting up and down and then transferred (16 μL of cell lysates) from the 96-well cell culture plate to two wells of the HTRF 384-well detection plate containing the antibody solution. Plates were centrifuged (524 g for 1 min) and allowed to incubate between 4 and 24 h at room temperature. The maximum signal is reached after 4 h incubation time and remains stable over a period of 24 hours. Therefore, readings can be made between 4 and 24 h of incubation. Plates were centrifuged again (524 g for 1 min), and analyzed on the EnVision plate reader using the following settings: Excitation 320 nm, Bandwidth […]; Emission 615 nm, Bandwidth […], Gain 100%, Flashes 100, Lag 60 μs.

Assay [2] has as its target KRAS-PI3Kα interaction (KRAS-Q25A binding to avi-tagged full length PI3Kα) (Homo sapiens (Human), UniProt P42336). As to the kind of experiment: Disrupting KRAS-PI3Kα interaction by SPR inhibition assay. Particulars: KRAS-Q25A at 20 μM, 25° C. The procedure: SPR binding experiments were collected on a Biacore 8K Instrument (Cytiva). Neutravidin (Pierce) was amine coupled to the carboxymethylated dextran surface of a CM5 sensor chip (Cytiva) using standard amine coupling chemistry. The CM5 chip surface was first activated with 0.1 M N-hydroxy succinimide and 0.4 M N-ethyl-N′-(3-dimethyl aminopropyl) carbodiimide at a flow rate of 20 μL/min using 20 mM HEPES pH 7.4, 150 mM NaCl as the running buffer. Next, neutravidin was diluted to 20 μg/mL in 10 mM sodium acetate (pH 4.5) and injected on all flow cells until a density of approximately 10,000 response units (RU) was immobilized. Activated amine groups were quenched with an injection of 1 M ethanolamine (pH 8.0). 300-500 RU of avi-tagged full length PI3Kα was captured on all flow cells in 20 mM HEPES pH 7.4, 150 mM NaCl, 5 mM MgCl2, 1 mM TCEP, 0.05% tween 20, 5% DMSO buffer. KRAS-Q25A at 20 μM was mixed with 8 concentrations of compound (50 nM-100 μM) and injected over the full-length PI3Kα at 30 μL/min and 25° C. Steady-state levels of KRAS binding were recorded and fit with a 4-parameter inhibition model to determine the IC50 values.
(In SPR one partner is held on a chip, and binding of the other changes the refractive index at the surface.)

The target of assay [3] is Cys242 in human PIK3CA (157-299) (Homo sapiens (Human), UniProt P42336). As to the kind of experiment: Covalent modification assay using MALDI-TOF MS. It is filed as biochemical. To be noted: 4 h reaction time point; 3.33 μM protein target, 1:7.5 protein to compound ratio (compounds 1-852). The method, boiled down: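 Covalent adduct formation was read by linear-mode MALDI-TOF with sinapinic acid matrix, reported as modified-protein peak height divided by total protein peak heights. Reactions held PIK3CA (157-299) at 1 or 3.33 μM in HEPES/NaCl/MgCl2 buffer, pH 7.3, sampled after 15 min to 4 h at room temperature.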
Chain of Cys242 in human PIK3CA (157-299) (P42336 157-299): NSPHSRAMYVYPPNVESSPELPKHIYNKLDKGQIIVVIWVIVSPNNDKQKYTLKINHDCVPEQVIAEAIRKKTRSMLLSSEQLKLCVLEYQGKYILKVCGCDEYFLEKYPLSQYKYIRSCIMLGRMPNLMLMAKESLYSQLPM

Another assay relates to pAKT in BT474 cells. As to the kind of experiment: Cell-based pAKT HTRF assay in BT474 cells. To be noted: BT474 cells, 4 hr incubation, Compounds 10-999, read-out: pAKT inhibition IC50 in BT474 cells. In outline: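 BT474 cells in DMEM/10% FBS were treated the day after seeding with a 9-point, 3-fold compound series from 3 μM (0.25% DMSO) for 4 hr. Lysates were mixed with d2 and Eu cryptate anti-pAKT antibodies and incubated 4-24 h at room temperature. HTRF was read with excitation at 320 nm and emission at 615 nm.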

Experimental findings from US20250230138A1, “COMPOUNDS HAVING A T-STRUCTURE FORMED BY AT LEAST FOUR CYCLES FOR USE IN THE TREATMENT OF CANCER AND OTHER INDICATIONS” (TheRas, Inc., priority 2022, published 2025) are described below.

Like-named read-outs stand apart in the source and are kept apart here.

In general, IC50 refers to the concentration that gives 50% inhibition.

Chain of KRAS-PI3Kα interaction (KRAS-Q25A binding to avi-tagged full length PI3Kα) (P42336 whole entry, looked up, stated change not applied): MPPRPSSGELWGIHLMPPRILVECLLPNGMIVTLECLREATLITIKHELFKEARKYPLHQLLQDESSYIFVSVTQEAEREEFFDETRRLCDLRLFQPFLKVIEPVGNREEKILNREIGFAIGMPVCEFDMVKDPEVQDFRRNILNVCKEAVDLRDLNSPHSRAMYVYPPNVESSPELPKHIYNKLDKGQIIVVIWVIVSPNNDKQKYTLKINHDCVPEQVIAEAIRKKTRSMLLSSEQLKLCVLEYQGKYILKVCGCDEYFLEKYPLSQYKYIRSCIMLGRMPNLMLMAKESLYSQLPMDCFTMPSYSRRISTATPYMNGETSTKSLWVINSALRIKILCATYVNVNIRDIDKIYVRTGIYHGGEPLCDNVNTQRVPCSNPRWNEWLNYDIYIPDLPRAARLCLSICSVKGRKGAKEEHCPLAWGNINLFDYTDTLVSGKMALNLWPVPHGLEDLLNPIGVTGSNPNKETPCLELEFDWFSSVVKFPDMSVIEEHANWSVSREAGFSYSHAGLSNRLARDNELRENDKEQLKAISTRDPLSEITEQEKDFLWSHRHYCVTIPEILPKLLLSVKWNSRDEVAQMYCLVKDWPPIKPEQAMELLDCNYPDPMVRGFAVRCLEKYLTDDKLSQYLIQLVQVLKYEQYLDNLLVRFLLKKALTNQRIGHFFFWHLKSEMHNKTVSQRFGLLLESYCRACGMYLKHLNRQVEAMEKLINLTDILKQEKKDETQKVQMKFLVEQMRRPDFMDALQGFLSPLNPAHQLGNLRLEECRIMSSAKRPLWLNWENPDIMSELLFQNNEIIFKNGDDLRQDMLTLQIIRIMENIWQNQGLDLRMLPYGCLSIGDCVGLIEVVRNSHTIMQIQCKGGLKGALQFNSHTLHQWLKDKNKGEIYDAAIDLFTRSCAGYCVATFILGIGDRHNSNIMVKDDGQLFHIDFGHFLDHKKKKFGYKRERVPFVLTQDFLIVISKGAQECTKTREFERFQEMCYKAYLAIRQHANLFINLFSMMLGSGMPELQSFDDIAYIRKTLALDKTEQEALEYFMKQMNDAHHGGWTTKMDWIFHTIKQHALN
Chain of KRAS-PI3Kα interaction (KRAS-Q25A binding to avi-tagged full length PI3Kα) (P27986 whole entry partner, looked up): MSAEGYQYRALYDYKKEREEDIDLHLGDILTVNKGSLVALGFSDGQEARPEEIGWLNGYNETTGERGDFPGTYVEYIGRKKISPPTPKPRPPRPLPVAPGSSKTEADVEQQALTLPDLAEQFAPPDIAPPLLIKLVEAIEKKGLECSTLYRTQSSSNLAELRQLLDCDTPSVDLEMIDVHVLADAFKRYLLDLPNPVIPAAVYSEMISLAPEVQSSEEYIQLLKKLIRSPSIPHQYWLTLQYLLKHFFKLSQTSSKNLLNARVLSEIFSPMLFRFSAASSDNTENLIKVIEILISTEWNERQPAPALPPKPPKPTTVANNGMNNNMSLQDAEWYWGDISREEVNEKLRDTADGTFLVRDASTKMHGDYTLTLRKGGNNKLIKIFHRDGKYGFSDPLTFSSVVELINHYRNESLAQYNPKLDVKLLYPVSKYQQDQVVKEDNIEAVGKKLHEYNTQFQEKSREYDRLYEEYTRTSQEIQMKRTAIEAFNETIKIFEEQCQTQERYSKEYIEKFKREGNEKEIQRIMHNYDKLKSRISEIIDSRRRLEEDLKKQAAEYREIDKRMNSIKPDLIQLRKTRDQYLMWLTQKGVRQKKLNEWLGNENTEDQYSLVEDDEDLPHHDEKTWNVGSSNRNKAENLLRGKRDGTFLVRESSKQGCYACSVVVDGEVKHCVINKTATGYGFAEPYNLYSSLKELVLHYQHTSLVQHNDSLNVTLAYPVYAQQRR

In the case of `CCC(=O)NCc1cccc(-c2nc(-c3ccc4c(c3)CCNC4)c3ccsc3c2-c2ccc(F)cc2OCCOC)c1` [compound 9], the values for the IC50 in assay [1] and in assay [2] were 1 to 10 µM and 5 to 25 µM, respectively.
In the case of `C=CC(=O)N1CCC(n2cc(-c3nc(-c4ccc5c(c4)CCNC5)c4ccsc4c3-c3ccc(F)cc3OCCOC)cn2)C1` (stereo not shown) [compound 28], the results for the IC50 (in assay [2]; in the assay with pAKT in BT474 cells) were 5 to 25 µM and below 0.1 µM, respectively. For the same compound, the “% of modification” value in assay [3] is “A (percent of modification of PIK3CA protein ≥75%)”.
On to `COCCOc1cc(F)ccc1-c1c(-c2cnn(CC(C)(C)C)c2)nc(-c2ccc3c(c2)CCNC3)c2ccsc12` [compound 13], for which the IC50 in assay [1] was in the range of 1 to 10 µM; in assay [2], 5 to 25 µM.
Take `C=CC(=O)NC1CC(n2cc(-c3nc(-c4ccc5c(c4)CCNC5)c4ccsc4c3-c3ccc(F)cc3OCCOC)cn2)C1` (stereo not shown) [compound 60]: the IC50 in assay [2] was 5 to 25 µM; with pAKT in BT474 cells, 0.1 to 1 µM. Further, in assay [3], the “% of modification” value is “A (percent of modification of PIK3CA protein ≥75%)”.
Take `COCCOc1cc(F)ccc1-c1c(-c2cccc(CNC(=O)C(C)(C)C)c2)nc(-c2ccc3c(c2)CCNC3)c2ccsc12` [compound 18]: the figures for the IC50 in assay [1] and in assay [2] were 1 to 10 µM and below 5 µM, respectively.
In the case of `C=CC(=O)NCCn1cc(-c2nc(-c3ccc4c(c3)CCNC4)c3ccsc3c2-c2ccc(F)cc2OCCOC)cn1` [compound 22], the IC50 in assay [2] lay in the range of 5 to 25 µM. Also, the “% of modification” value in assay [3] is “B (50%<percent of modification <75%)”.
For `C=CC(=O)N1CC[C@H](n2cc(-c3nc(-c4ccc5c(c4)CNC(=O)C5)c4ccsc4c3-c3ccc(F)cc3OCCOC)cn2)C1` [compound 54], the IC50 is 5 to 25 µM in assay [2] and below 0.1 µM in the assay with pAKT in BT474 cells. The “% of modification” value in assay [3] is recorded as “A (percent of modification of PIK3CA protein ≥75%)”.
Take `COCCOc1cc(F)ccc1-c1c(-c2cccc(CNC(=O)CC(C)(C)C)c2)nc(-c2ccc3c(c2)CCNC3)c2ccsc12` [compound 19]: the IC50 is above 10 µM in assay [1] and below 5 µM in assay [2].
`COCCOc1cc(F)ccc1-c1c(-c2cnn(C3CCN(C(=O)/C=C/CN(C)C)C3)c2)nc(-c2ccc3c(c2)CCNC3)c2ccsc12` (stereo not shown) [compound 56]: the IC50 in assay [2] was 5 to 25 µM. For the same compound, the “% of modification” value in assay [3] was “B (50%<percent of modification <75%)”.
In assay [2], `C=CC(=O)Nc1cccc(-c2nc(-c3ccc4c(c3)CCC(O)C4)c3ccsc3c2-c2ccc(F)cc2OCCOC)c1` (stereo not shown) [compound 57] came in with an IC50 above 25 µM. Also, the “% of modification” value in assay [3] is given as “B (50%<percent of modification <75%)”.
For `COCCOc1cc(F)ccc1-c1c(-c2cccc(C(=O)NC(C)C)c2)nc(-c2ccc3c(c2)CCNC3)c2ccsc12` [compound 17], the IC50 in assay [1] was 1 to 10 µM; in assay [2], 5 to 25 µM.
Consider `C=CC(=O)Nc1cccc(-c2nc(-c3cnn(C)c3)c3ccsc3c2-c2ccc(F)cc2OCCOC)c1` [compound 52], for which the IC50 in assay [2] lay within 5 to 25 µM; in the assay with pAKT in BT474 cells, 0.1 to 1 µM. The “% of modification” value in assay [3] is recorded as “A (percent of modification of PIK3CA protein ≥75%)”.
On to `COCCOc1cc(F)ccc1-c1c(-c2cnn(CCC(=O)NC(C)(C)C)c2)nc(-c2ccc3c(c2)CCNC3)c2ccsc12` [compound 41], for which the IC50 is 1 to 10 µM in assay [1] and 5 to 25 µM in assay [2].
For `C=CC(=O)N1CC[C@H](n2cc(-c3nc(-c4ccc5c(c4)CCNC5)c4ccsc4c3-c3ccc(F)cc3OCCOC)c(C)n2)C1` [compound 59], the values for the concentration for half-maximal inhibition (IC50) (in assay [2]; in the assay on pAKT in BT474 cells) were below 5 µM and below 0.1 µM, respectively. Besides, the “% of modification” value in assay [3] was “A (percent of modification of PIK3CA protein ≥75%)”.
Taken in the same sequence, the figures for `C=CC(=O)N1CCC(n2cc(-c3nc(-c4ccc5c(c4)CNC(=O)C5)c4ccsc4c3-c3ccc(F)cc3OCCOC)cn2)CC1` [compound 50] were 5 to 25 µM, below 0.1 µM and “A (percent of modification of PIK3CA protein ≥75%)”.
The compound `C=CC(=O)NCc1csc(-c2nc(-c3ccc4c(c3)CCNC4)c3ccsc3c2-c2ccc(F)cc2OCCOC)n1` [compound 38] displayed an IC50 in assay [2] of 5 to 25 µM. The “% of modification” value in assay [3] is “B (50%<percent of modification <75%)”.
As for `CCC(=O)Nc1cccc(-c2nc(-c3ccc4c(c3)CCNC4)c3ccsc3c2-c2ccc(F)cc2OCCOC)c1` [compound 29], the concentration for half-maximal inhibition (IC50) in assay [1] is 1 to 10 µM; in assay [2] it was below 5 µM.
In the case of `C=CC(=O)N1CCC(n2cc(-c3nc(-c4cnn(C)c4)c4ccsc4c3-c3ccc(F)cc3OCCOC)cn2)CC1` [compound 49], the IC50 in assay [2] is above 25 µM; with pAKT in BT474 cells it was 0.1 to 1 µM. The “% of modification” value in assay [3] is given as “A (percent of modification of PIK3CA protein ≥75%)”.
Take `COCCOc1cc(F)ccc1-c1c(-c2cccc(NC(=O)C(C)C)c2)nc(-c2ccc3c(c2)CCNC3)c2ccsc12` [compound 33]: the values for the IC50 in assay [1] and in assay [2] were 1 to 10 µM and below 5 µM, respectively.
Regarding `COCCOc1cc(F)ccc1-c1c(-c2cccc(C(=O)N3CCCC3)c2)nc(-c2ccc3c(c2)CCNC3)c2ccsc12` [compound 15], the IC50 in assay [1] is 1 to 10 µM; in assay [2], below 5 µM.
`C=CC(=O)NC1CC(n2cc(-c3nc(-c4ccc5c(c4)CCNC5)c4ccsc4c3-c3ccc(F)cc3OCCOC)cn2)C1` (stereo not shown) [compound 55]: the IC50 in assay [2] lay in the range of 5 to 25 µM; in the assay on pAKT in BT474 cells, 0.1 to 1 µM. Also, the “% of modification” value in assay [3] is reported as “A (percent of modification of PIK3CA protein ≥75%)”.
As for `COCCOc1ccccc1-c1c(-c2cccc(Cl)c2)nc(-c2ccc3c(c2)CCNC3)c2ccsc12` [compound 6], the IC50 was 1 to 10 µM in assay [1] and 5 to 25 µM in assay [2].
In assay [2], `C=CC(=O)n1cnc(-c2nc(-c3ccc4c(c3)CCNC4)c3ccsc3c2-c2ccc(F)cc2OCCOC)c1` [compound 35] came in with an IC50 of 5 to 25 µM. For the same compound, in assay [3], the “% of modification” value was “D (percent of modification <25%)”.
As for `C=CC(=O)N1CC(Cn2cc(-c3nc(-c4ccc5c(c4)CCNC5)c4ccsc4c3-c3ccc(F)cc3OCCOC)cn2)C1` [compound 48], the concentration for half-maximal inhibition (IC50) in assay [1] was below 1 µM; in assay [2], 5 to 25 µM.
Taken in the same sequence, the figures for `COCCOc1cc(F)ccc1-c1c(-c2cccc(CNC(=O)C(C)C)c2)nc(-c2ccc3c(c2)CCNC3)c2ccsc12` [compound 14] were above 10 µM and 5 to 25 µM.
With `C=CC(=O)N1CC[C@H](n2cc(-c3nc(-c4cnn(C)c4)c4ccsc4c3-c3ccc(F)cc3OCCOC)cn2)C1` [compound 53], the half-inhibitory concentration (IC50) in assay [2] lay within 5 to 25 µM; in the assay with pAKT in BT474 cells, 0.1 to 1 µM. Besides, the “% of modification” value in assay [3] was “A (percent of modification of PIK3CA protein ≥75%)”.
For `C=CC(=O)Nc1ccc2nc(-c3nc(-c4ccc5c(c4)CCNC5)c4ccsc4c3-c3ccc(F)cc3OCCOC)[nH]c2c1` [Compound 23, N-[2-[7-[4-fluoro-2-(2-methoxyethoxy)phenyl]-4-(1,2,3,4-tetrahydroisoquinolin-6-yl)thieno[3,2-c]pyridin-6-yl]-3H-benzimidazol-5-yl]prop-2-enamide], the IC50 was above 25 µM in assay [2] and 1 to 3 µM with pAKT in BT474 cells (Homo sapiens, BT-474). Moreover, in assay [3], the “% of modification” value was “A (percent of modification of PIK3CA protein ≥75%)”.
